In US7390826B2, “Inhibitors of animal cell motility and growth” (The Board of Trustees of The University of Illinois, priority 2002, dated 2008):
“Also recorded” adds a separate entry of the source.

Tests used:
MDCK cell wounds = assay: lamellipodial density at the margin of MDCK cell wounds; type: cell-based, canine; details: for Lamellipodial Density: 50 μM, mean ± SEM, * p<0.05 vs control
Method: Lamellipodial protrusion is known to drive most forms of animal cell crawling. At any given time in the migrating cell sheet, some cells are extending lamellipodia at the margin while others are not. […] Therefore, inhibition of cell sheet migration by compound 1 at least in part is attributed to reduced formation of lamellipodia at the would margin.
Lamellipodial density at the margin of MDCK cell wounds was determined under the following treatment conditions: 0.1% DMSO (control, n=25 wounded monolayers), 50 μM compound 1 (n=19), or 50 μM compound 11 (n=10). Lamellipodial density is the number of lamellipodial protrusions detected at the wound margin until closure for the times indicated divided by margin perimeter length. Values are mean±SEM.
Wound closure assay and compound screening: MDCK cells were plated on multiwell tissue culture plates and cultured at 37° C. and 5% CO2 with medium changes every two days until confluent. When the cultures reached confluence, medium was changed again and all experimental treatments were begun a day later. Compounds were solubilized in dimethyl sulfoxide (DMSO) and added with fresh-medium to cell cultures at initial screening concentrations of 10 and 100 μM. Controls consisted of parallel wells to-which DMSO solvent carrier alone was added at the same concentration as that added with experimental treatments (not exceeding 0.1% (v/v)). DMSO alone at this concentration had no detectable effect on the cells. Monolayers were scraped 30 min later with a micropipette and ultramicro tips, allowing small wounds of consistent size to be generated. Progress of wound closure was examined at set time intervals following wounding by microscope, and inhibitory or acceleratory effects on wound closure relative to parallel controls noted. […] Digital images of the wounded monolayers were taken every 2 hours for 18 hours, and then at 30, 36, 54, 60, and 72 hours following wounding. The number of lamellipodia at the wound margin was also counted at these times.

MDCK cells [1] = assay: MDCK cell proliferation; type: cell-based, canine; details: 50 μM
Method: In FIG. 2A, cells were plated at low cell density (1×10^4 cells/mL) and allowed to attach and begin to grow for 48 hours prior to the start of experiment. The treatments were 0.1% DMSO (control, n=9 cultures), 50 μM compound 1 (n=8), or 50 μM compound 11 (n=7). Reported values are mean with SEM of the percent increase in cell number from 0 to 48 hours after addition of compound 1.
The values were mean with SEM of the percent increase in cell number another 48 hours after replacement of medium containing 50 μM compound 1 (n=8 cultures) or 0.1% DMSO (n=9) with fresh medium containing 0.1% DMSO.
MDCK cell proliferation: MDCK cells were plated on multiwell tissue culture plates at low density ([…]). Cells were allowed to attach and begin to grow for 48 hours before the start of the experiment. Fresh medium with or without compound was then added, and cells were incubated for 48 hours. At both 0 and 48 hours, some of the parallel wells for control and compound treatments were washed twice with PBS and treated with trypsin/EDTA solution to detach the cells. An equal volume of medium was added, cells were collected and counted using a hemacytometer. For reversibility, some of the parallel cultures for both control and compound treatments were grown another 48 hours after washing twice with PBS and replacing medium with fresh compound-free medium. At both the time of washing out and 48 hours later, some of the parallel wells for control and compound treatments were washed twice with PBS, detached from the plates with trypsin/EDTA solution, and the number of cells was counted.

MDCK cells [2] = assay: Trypan blue exclusion cell viability assay; type: cell-based, canine
Excerpt: Cells also remain normal in morphology with both cell-substratum and cell-cell adhesion intact after treatment with compound 1.

MDCK cell monolayers = assay: filamentous actin staining (rhodamine-phalloidin) of wounded MDCK monolayers; type: cell-based, canine; details: 50 μM; 12 hours after wounding
Method: Although formation of perimarginal actin bundles is not required for wound closure in this system, these actin bundles may help to distribute force in the first row of cells from actively protruding and moving cells to less-actively motile cells, thus making the closure process more regular and uniform than it would be otherwise.
Filamentous actin staining: MDCK cell mono-layers on glass coverslips-were fixed with 3.7% formaldehyde in PBS 12 hours after wounding. Cells were permeabilized with 0.1% (w/v) TRITONO X-100 in PBS, stained with 50 nM tetramethylrhodamine-conjugated phalloidin in PBS, and washed twice with PBS. Coverslips were mounted in 90% glycerol/10% ten strength PBS with 2 mg/mL p-phenylenediamine on glass slides and then examined by fluorescence microscopy.

[3] = system: Escherichia coli (DH5a strain); assay: bacterial growth (absorbance at 600 nm); type: cell-based; details: 50 μM
Method: (§1) Reported values are the mean ±SEM for triplicate samples.
(§2) Bacterial growth: Staphylococcus aureus or Escherichia coli (DH5a strain) were grown in Luria-Bertani (LB) medium for 12 hours at 37° C. in a shaking incubator. Dilutions into fresh LB medium with 0.1% DMSO (solvent carrier control) or 50 μM compound 1 were made to an absorbance at 600 nm (A600) of about 0.1. Bacteria were incubated at 37° C. with shaking during the experiment, and A600 measurements were made at set time intervals during log growth phase until the plateau phase was reached.

Staphylococcus aureus = assay: bacterial growth (absorbance at 600 nm); type: cell-based; details: 50 μM; for absorbance at 600 nm: mean ± SEM
Method: as §1, §2

Keller sandwich explants = assay: convergent extension in Keller sandwich explants; design: species or system frog
Excerpt: It is hypothesized, but not relied upon herein, that the effects of compound 1 are mediated by an activity or activities after stage 9 during gastrulation and neurulation, and its effects on blastopore closure and anteroposterior elongation are consistent with inhibition of convergent extension. […] Therefore, compound 1 affects cell motility, cell polarity, and/or cell adhesion in the embryo.

## C/C=C/C(=O)N1C(=O)OC[C@@H]1Cc1ccccc1 [Compound 1, (4S)-3-((E)-2-butenoyl)-4-benzyl-2-oxazolidinone]
MDCK cell wounds; 2 hours
  Lamellipodial Density: 0.341 ± 0.119
MDCK cell wounds; 4 hours
  Lamellipodial Density: 0.573 ± 0.194*
MDCK cell wounds; 6 hours
  Lamellipodial Density: 0.563 ± 0.142*
MDCK cell wounds; 8 hours
  Lamellipodial Density: 0.938 ± 0.184*
MDCK cell wounds; 10 hours
  Lamellipodial Density: 0.803 ± 0.203
MDCK cell wounds; 12 hours
  Lamellipodial Density: 0.520 ± 0.124*
MDCK cell wounds; versus control
  cells extending lamellipodia at the margin: significantly fewer cells extending lamellipodia at the margin
MDCK cells [1]; 0 to 48 hours
  inhibition of MDCK cell proliferation (percent increase in cell number): reversibly inhibited MDCK cell proliferation
MDCK cells [1]; another 48 hours after washing out
  reversibility of inhibition of cell proliferation: reversible
MDCK cells [2]
  toxicity at concentrations that inhibit cell migration: no general toxicity; also recorded: no evidence of toxicity or metabolic distress
MDCK cell monolayers
  formation of filamentous actin bundles at wound margin: did not affect formation of filamentous actin bundles
[3]
  inhibition of growth of Escherichia coli (Gram-negative): does not inhibit the growth
Staphylococcus aureus
  inhibition of growth of Staphylococcus aureus (Gram-positive): does not inhibit the growth
Staphylococcus aureus; 0 hours
  absorbance at 600 nm: 0.117 ± 0.037
Staphylococcus aureus; 1 hours
  absorbance at 600 nm: 0.160 ± 0.056
Staphylococcus aureus; 2 hours
  absorbance at 600 nm: 0.332 ± 0.130
Staphylococcus aureus; 3 hours
  absorbance at 600 nm: 0.615 ± 0.162
Staphylococcus aureus; 4 hours
  absorbance at 600 nm: 0.937 ± 0.181
Staphylococcus aureus; 27 hours
  absorbance at 600 nm: 3.265 ± 0.196
Staphylococcus aureus; 31 hours
  absorbance at 600 nm: 3.608 ± 0.271
Keller sandwich explants
  convergent extension: inhibits convergent extension
